This note sets out measurements from PMC8344021, “Discovery of Small Molecule Bak Activator for Lung Cancer Therapy” (Theranostics, 2021).

In test [1] the test system is A549 cells. Description: Dynamic BH3 profiling (DBP), mitochondrial priming. To be noted: 0, 0.25, 0.5, 0.75, 1.0 µM, 16h. The format is cell-based, human. As to the method:
(§1) DBP using Bim peptide was carried out as described previously [24]-[26]. After treatment with BKA-073, venetoclax (ABT-199) or DMSO control for 16h, cells were collected, washed and resuspended at 2 x 10^6 cells/ mL in mannitol experimental buffer (MEB) [150 mM D-mannitol, 10 mM HEPES-KOH (pH 7.5), 50 mM KCl, 20 μM EGTA, 20 μM EDTA, 0.1% BSA, and 5 mM succinate] as described. One volume of the 4x cell suspension was added to one volume of a 4x dye solution containing 4 μM JC-1, […] oligomycin, 0.02% digitonin, 20mM β-mercaptoethanol in MEB. The 2x cell/dye mixture was allowed to rest for 5-10 min at room temperature to allow for permeabilization and JC-1 staining. A total of 15μl of the 2x cell/dye mixture was loaded into a 384-well plate that contained 15µL of Bim BH3 peptide (0.03, 0.1, 0.3, 1, and 3 μM) in MEB, shaken for 15 s inside the reader, and the fluorescence at 590 nm monitored every 5 min for 180 min at 32 °C. The dynamic BH3 profile (∆ % Priming) was calculated as described [24]-[26].
The BH3 death domain is known to be required for the proapoptotic function of Bak. […] The top 500 compounds determined to have the highest affinity for the BH3 domain were obtained from the NCI and tested for cytotoxicity in human lung cancer cells (i.e. H1299, H460 and A549 cells) by sulforhodamine B (SRB) assay for further screening as described, [36]. […]

Test [2] relates to MDA-MB-231, MCF7, HCT-116, Ramos, OPM-1, PANC-1 and U2OS cell lines. Kind of test: Dynamic BH3 profiling in other types of cancer cell lines. The format is cell-based, human. The note with it: 1μM, 16h. As to the method:
as §1
Figure S2. BKA-073 induces mitochondrial priming and apoptosis in various type of cancers. (A) Expression levels of Bak were analyzed by Western blot in various type of cancer cell lines. (B-C) Various type of cancer cell lines were treated with BKA -073 (1µM) for 16h or 72h, followed by analysis of dynamic BH3 profiling (B) or apoptotic cell death (C), respectively. […]

Take `COc1ccc2nc3ccccc3c(NCCNCC(C)O)c2c1` (centres unmarked) [BKA-073]: the “induction of mitochondrial priming (∆% priming)” value in test [1] was “in a dose-dependent manner”. The “induction of mitochondrial priming” value in test [2] is “potently induced”.
